Paper PMC5378956, “Inhibition of delta-secretase improves cognitive functions in mouse models of Alzheimer's disease” (Nature Communications, 2017)
Where two headings read alike, the source gives them in different places.

Tests used:
cathepsin-S = biological target: T1, cathepsin-S (Homo sapiens, UniProt P25774); experiment: IC50 assay with recombinant cathepsin-S; assay type: biochemical; settings: mean±s.d.
T1 construct: purchased Athens Research and Technology (Athens, GA)
Description: Cathepsin-S – 100 nM enzyme was pre-incubated with inhibitor in assay buffer (100 mM NaH2PO4 pH 6.5, 100 mM NaCl) for 10 min at 37 °C. The reaction was initiated on addition of 25 μM substrate (Boc-Val-Leu-Lys-AMC (Bachem).
(§1) To determine the IC50 values of the compounds towards δ-secretase, cathepsin-S, cathepsin-L, caspase-3 and caspase-8, purified recombinant enzyme was incubated in appropriate assay buffers in the presence of increasing concentrations of inhibitors. The formation of fluorescent product was monitored in duplicate reactions and the data were fit to appropriate equations to calculate the IC50 values.

CYP3A = experiment: CYP inhibition screening in microsomes; settings: human
δ-secretase = biological target: T2, δ-secretase (Homo sapiens, UniProt Q99538); experiment: IC50 assay with purified recombinant δ-secretase (AEP), substrate Cbz-Ala-Ala-Asn-AMC; assay type: biochemical
T2 construct: tested with purified active δ-secretase, IC50 values for the top 8 candidates were calculated; purchased Sino Biological (Beijing, China)
T2 sequence (Q99538 18-323 limits assumed): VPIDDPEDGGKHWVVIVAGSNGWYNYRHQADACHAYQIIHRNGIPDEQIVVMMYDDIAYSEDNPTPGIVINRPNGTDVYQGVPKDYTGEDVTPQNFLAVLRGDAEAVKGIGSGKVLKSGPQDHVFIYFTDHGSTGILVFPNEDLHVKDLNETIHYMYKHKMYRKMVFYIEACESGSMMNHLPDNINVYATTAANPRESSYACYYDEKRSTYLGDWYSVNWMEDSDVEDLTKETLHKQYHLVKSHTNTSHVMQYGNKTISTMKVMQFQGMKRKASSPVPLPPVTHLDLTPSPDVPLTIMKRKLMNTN
Description: δ-secretase – 50 nM enzyme was pre-incubated with inhibitor in assay buffer (50 mM Sodium Citrate pH 5.5, 0.1% CHAPS, 60 mM Na2HPO4, 1 mM EDTA) for 10 min at 37 °C. The reaction was initiated on addition of 10 μM Cbz-Ala-Ala-Asn-AMC (Bachem).
as §1

CYP3A4 = CYP3A4 (Homo sapiens, UniProt P08684); experiment: CYP inhibition screening in microsomes; settings: pH 7.4, probe midazolam
caspase-3 = biological target: T3, caspase-3 (Homo sapiens, UniProt P42574); experiment: IC50 assay with recombinant caspase-3; assay type: biochemical; settings: mean±s.d.
T3 construct: purchased Millipore (Billerica, MA)
T3 sequence (P42574 29-175 limits assumed): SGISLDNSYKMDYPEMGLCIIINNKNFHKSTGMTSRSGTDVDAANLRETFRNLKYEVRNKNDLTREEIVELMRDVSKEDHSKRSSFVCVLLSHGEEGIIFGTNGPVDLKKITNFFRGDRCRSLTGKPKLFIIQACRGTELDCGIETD
T3 sequence (P42574 176-277 limits assumed): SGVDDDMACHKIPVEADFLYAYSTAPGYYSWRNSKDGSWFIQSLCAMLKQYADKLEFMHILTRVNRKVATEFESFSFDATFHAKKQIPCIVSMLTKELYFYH
Description: Caspase-3 and 8 – The enzyme was pre-incubated with inhibitor in assay buffer (100 mM HEPES pH 7.4, 0.1% CHAPS, 10% Sucrose) for 10 min at 37 °C.
as §1

CYP2D6 = CYP2D6 (Homo sapiens, UniProt P10635); experiment: CYP inhibition screening in microsomes; settings: pH 7.4
[1] = BBB-PAMPA permeability assay; assay type: in vitro ADME; settings: for Papp at 18 h: PAMPA, read-out: effective permeability Pe; for Papp at 18 h / effective permeability Pe: porcine brain lipid, 18 h
Description: Supplementary Table 3: Caco-2 permeability and BBB-PAMPA permeability […]
For CaCo-2 permeability assay, cells were incubated with 10 µM of these reagents in buffers for 2 h, and the receiver side buffer is removed for analysis by LC/MS/MS. Efflux […]
For BBB-PAMPA permeability assay, the filter membrane was coated with 4 µl of a 20 mg ml-1 porcine brain lipid in dodecane. 200 µl of the compound solution was added to the donor well. The acceptor well was filled with 200 µl of transport buffer. The acceptor filter plate was carefully placed on to the donor plate to create […]
a sandwich. […] Samples of the donor and acceptor wells were analyzed by LC/MS/MS and the effective permeability (Pe) was calculated.
(§2) LLOQ: Lower Limit of Quantification; Papp: apparent permeability.

cathepsin-L = cathepsin-L (Homo sapiens, UniProt P07711); experiment: IC50 assay with cathepsin-L; assay type: biochemical; settings: mean±s.d.
Description: Cathepsin-L – 100 nM enzyme was pre-incubated with inhibitor in assay buffer (100 mM Sodium Acetate pH 5.5, 1 mM EDTA) for 10 min at 37 °C. The reaction was initiated on addition of 25 μM substrate (D-Val-Leu-Lys-AMC (Bachem).
as §1

CYP1A2 = biological target: T4, CYP1A2 (Homo sapiens, UniProt P05177); experiment: CYP inhibition screening in microsomes; settings: pH 7.4
T4 sequence (P05177 1-516): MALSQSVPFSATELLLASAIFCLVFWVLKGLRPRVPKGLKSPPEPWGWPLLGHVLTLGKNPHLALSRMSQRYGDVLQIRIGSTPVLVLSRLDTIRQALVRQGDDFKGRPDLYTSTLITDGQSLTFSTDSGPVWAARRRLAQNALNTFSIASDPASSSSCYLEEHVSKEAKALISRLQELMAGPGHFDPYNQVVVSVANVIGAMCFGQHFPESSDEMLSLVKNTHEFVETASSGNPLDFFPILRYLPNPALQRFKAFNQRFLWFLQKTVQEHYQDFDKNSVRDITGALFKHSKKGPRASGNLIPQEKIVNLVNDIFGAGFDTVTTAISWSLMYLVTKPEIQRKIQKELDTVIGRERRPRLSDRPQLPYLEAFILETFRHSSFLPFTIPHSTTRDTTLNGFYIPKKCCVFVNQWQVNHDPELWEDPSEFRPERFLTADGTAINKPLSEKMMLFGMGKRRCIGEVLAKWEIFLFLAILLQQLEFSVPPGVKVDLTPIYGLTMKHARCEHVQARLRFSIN

[2] = Caco-2 monolayer permeability screen; settings: human, Caco-2
Description: Supplementary Table 3: Caco-2 permeability and BBB-PAMPA permeability
For CaCo-2 permeability assay, cells were incubated with 10 µM of these reagents in
buffers for 2 h, and the receiver side buffer is removed for analysis by LC/MS/MS. Efflux […]
as §2

[3] = purified recombinant enzyme, mean±s.d., read-out: IC50 AEP (δ-secretase)

Sequence of CYP2D6 (P10635 whole entry): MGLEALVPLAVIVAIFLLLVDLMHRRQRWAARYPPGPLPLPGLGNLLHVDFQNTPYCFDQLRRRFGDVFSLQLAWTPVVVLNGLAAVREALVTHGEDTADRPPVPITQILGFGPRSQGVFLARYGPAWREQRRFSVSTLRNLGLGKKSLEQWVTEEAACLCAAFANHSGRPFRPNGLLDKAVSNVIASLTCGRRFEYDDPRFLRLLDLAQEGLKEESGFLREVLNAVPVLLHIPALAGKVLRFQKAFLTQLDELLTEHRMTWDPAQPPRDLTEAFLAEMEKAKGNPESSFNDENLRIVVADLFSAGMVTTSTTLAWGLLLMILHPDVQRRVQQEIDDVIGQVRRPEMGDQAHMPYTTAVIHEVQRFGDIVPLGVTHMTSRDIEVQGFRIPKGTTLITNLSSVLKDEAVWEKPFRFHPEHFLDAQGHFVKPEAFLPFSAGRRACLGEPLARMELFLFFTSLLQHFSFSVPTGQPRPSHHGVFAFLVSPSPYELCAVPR
Sequence of CYP3A4 (P08684 whole entry): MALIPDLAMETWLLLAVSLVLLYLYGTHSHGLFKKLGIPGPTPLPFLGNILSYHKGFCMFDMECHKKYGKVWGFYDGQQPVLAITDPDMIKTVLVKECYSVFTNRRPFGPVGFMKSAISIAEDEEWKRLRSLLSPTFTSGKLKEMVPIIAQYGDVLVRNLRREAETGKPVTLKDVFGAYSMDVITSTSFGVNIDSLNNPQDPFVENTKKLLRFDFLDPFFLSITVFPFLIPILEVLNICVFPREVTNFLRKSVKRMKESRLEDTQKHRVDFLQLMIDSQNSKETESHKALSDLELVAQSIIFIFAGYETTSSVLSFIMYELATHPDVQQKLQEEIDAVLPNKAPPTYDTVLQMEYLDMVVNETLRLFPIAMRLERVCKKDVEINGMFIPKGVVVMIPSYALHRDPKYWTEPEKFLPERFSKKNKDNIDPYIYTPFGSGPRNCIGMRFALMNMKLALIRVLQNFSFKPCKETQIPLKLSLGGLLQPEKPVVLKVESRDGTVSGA
Sequence of cathepsin-L (P07711 114-333, species assumed): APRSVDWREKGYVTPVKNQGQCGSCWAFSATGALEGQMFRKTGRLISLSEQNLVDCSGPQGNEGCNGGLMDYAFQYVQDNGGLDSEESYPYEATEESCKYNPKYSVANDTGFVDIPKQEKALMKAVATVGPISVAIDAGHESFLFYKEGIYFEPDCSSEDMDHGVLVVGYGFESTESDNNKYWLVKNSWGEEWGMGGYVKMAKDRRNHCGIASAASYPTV
T1 sequence (P25774 115-331, species assumed): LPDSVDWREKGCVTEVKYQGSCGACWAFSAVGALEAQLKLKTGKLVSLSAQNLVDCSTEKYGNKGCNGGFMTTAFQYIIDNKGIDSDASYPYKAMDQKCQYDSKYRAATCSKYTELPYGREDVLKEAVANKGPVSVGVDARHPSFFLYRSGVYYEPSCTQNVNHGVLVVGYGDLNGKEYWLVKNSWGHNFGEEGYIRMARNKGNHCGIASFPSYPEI

| IC50 (cathepsin-S) [µM] | inhibition at 10 min, 3 µM (CYP3A; pH 7.4, probe testosterone) [%] | inhibition at 10 min, 10 µM (CYP3A; pH 7.4, probe testosterone) [%] | IC50 (δ-secretase; [3]) [µM] | inhibition at 10 min, 3 µM (CYP3A4) [%] | inhibition at 10 min, 10 µM (CYP3A4) [%] | IC50 (caspase-3) [µM] | inhibition at 10 min, 3 µM (CYP2D6) [%] | inhibition at 10 min, 10 µM (CYP2D6) [%] | BBB-PAMPA permeability / BBB penetration in words [1] | IC50 (cathepsin-L) [µM] | inhibition at 10 min, 3 µM (CYP1A2) [%] | inhibition at 10 min, 10 µM (CYP1A2) [%] | Papp A→B at 2 h, 10 µM [2] [×10⁻⁶ cm/s] | Papp B→A at 2 h, 10 µM [2] [×10⁻⁶ cm/s] | efflux ratio at 2 h, 10 µM [2] | effective permeability Pe [1] | SMILES | Papp at 18 h [1] [×10⁻⁶ cm/s] | other results |
| --- | --- | --- | --- | --- | --- | --- | --- | --- | --- | --- | --- | --- | --- | --- | --- | --- | --- | --- | --- |
| > 200 | -6 | 2.4 | 0.37 ± 0.06 | 7.3 | 10.4 | 29.7 ± 4.68 | -5.4 | 0.9 | barely penetrate the BBB | > 200 | -7.6 | 10.5 | 1.1 | 20.3 | 18.2 | – | Cn1c(=O)[nH]c(=O)c2c1nc(S)n2CC(O)COc1ccc(Cl)cc1 (stereo not drawn) [compound 38] | 0.007 | IC50 (δ-secretase; purified active δ-secretase, read-out: IC50 / potency toward δ-secretase): ~0.37 µM |
| > 100 | 2.5 | 0.7 | 0.26 ± 0.03 | -0.9 | 18.1 | > 100 | 9.9 | 1.4 | barely penetrate the BBB | 1.3 ± 0.39 | 13.5 | 10.3 | 19.3 | 17.4 | 0.9 | < LLOQ | COc1ccc(N2CCN(C(c3ccc(N(C)C)cc3)c3nnnn3C(C)(C)C)CC2)cc1 (stereo not drawn) [compound 31] | – | – |
| > 200 | 14.2 | 27.6 | 0.28 ± 0.02 | -2.5 | -2.5 | > 200 | 2.9 | -2.6 | – | > 200 | 28.4 | 44.5 | 1.4 | 3.7 | 2.7 | < LLOQ | Cc1cccc(NCc2ccc(O)c3ncccc23)c1C [compound 12] | – | – |

| SMILES | IC50 (cathepsin-S) [µM] | inhibition at 10 min, 3 µM (CYP3A; pH 7.4, probe testosterone) [%] | inhibition at 10 min, 10 µM (CYP3A; pH 7.4, probe testosterone) [%] | IC50 (δ-secretase; [3]) [µM] | inhibition at 10 min, 3 µM (CYP3A4) [%] | inhibition at 10 min, 10 µM (CYP3A4) [%] | IC50 (caspase-3) [µM] | inhibition at 10 min, 3 µM (CYP2D6) [%] | inhibition at 10 min, 10 µM (CYP2D6) [%] | BBB-PAMPA permeability / BBB penetration in words [1] | IC50 (cathepsin-L) [µM] | inhibition at 10 min, 3 µM (CYP1A2) [%] | inhibition at 10 min, 10 µM (CYP1A2) [%] | Papp A→B at 2 h, 10 µM [2] [×10⁻⁶ cm/s] | Papp B→A at 2 h, 10 µM [2] [×10⁻⁶ cm/s] | efflux ratio at 2 h, 10 µM [2] | effective permeability Pe [1] | Papp at 18 h [1] [×10⁻⁶ cm/s] | other results |
| --- | --- | --- | --- | --- | --- | --- | --- | --- | --- | --- | --- | --- | --- | --- | --- | --- | --- | --- | --- |
| Nc1ccc(N2CCOCC2)c2nonc12 [compound 11, 7-(morpholin-4-yl)-2,1,3-benzoxadiazol-4-amine] | > 200 | – | – | – | 3.6 | 8 | 31.9 ± 1.94 | 7.8 | 21.9 | detected at high-levels | > 200 | 13.1 | 37 | 35 | 7 | – | – | > 25 | inhibition at 10 min, 3 µM (CYP3A; pH 7.4): 4.1%; inhibition at 10 min, 10 µM (CYP3A; pH 7.4): 21.6% |
